Measured values reported in patent US20180320128A1, “METHODS FOR MODULATING PRODUCTION PROFILES OF RECOMBINANT PROTEINS” (ARES TRADING S.A., priority 2015, published 2018).

Experiments:
[1] = test system: mAb1 cells (CHO-S cells expressing IgG1 mAb1); assay: Fed-batch culture in Spin Tubes, constant osmolality (315 mOsm/kg), increasing raffinose concentration; format: cell-based, Chinese hamster
Procedure: (§1) Assays were performed with two CHO cell lines: • CHO-S cells expressing IgG1 mAb1, herein “Cells mAb1” or “mAb1 cells”. “mAb1” is a fully human monoclonal antibody directed against a soluble protein. Its isoelectric point (pI) is about 8.20-8.30. • CHO-K1 cells expressing IgG1 mAb2, herein “Cells mAb2” or “mAb2 cells”. “mAb2” is a humanized monoclonal antibody directed against a receptor found on the cell membrane. Its isoelectric point (pI) is about 9.30.
Spintubes: Cells expressing both mAb1 and mAb2 were inoculated at 0.3×10^6 cells per mL.
(§2) All assays were performed in fed-batch culture.
(§3) A serum-free chemically defined culture medium was used. It was used as it is (o be adapted), or it was supplemented with D-(+)-Raffinose pentahydrate (Sigma-Aldrich, 83400-25G) at different concentrations (0-45 mM). The culture medium was fed, on a regular basis, with a chemically defined feed medium, as well as with glucose in order to keep said glucose level in the range of >0 to about 8 g/L.
(§4) The cultures were performed: • In deepwell plates with a working volume of 450 μL. They were incubated at 36.5° C., 5% de CO2, 90% humidity and shaken at 320 rpm. Each of the fed-batch culture lasted 14 days. • In Spin Tubes (ST) with a working volume of 30 mL (with as permable lid). They were inoculated with a cell density of 0.3*10^6 cells/mL and maintained at 36.5° C., 320 rpm, 5% CO2 and 90% humidity for 14 days.
Glycosylation profiles were established by capillary gel electrophoresis with laser-induced fluorescence (CGE-LIF). Groups of glycans were defined as thereafter in Table 2. […]
A second experiment with constant osmolality (315 mOsm/kg) and increasing raffinose concentration was performed in Spin Tubes with a working volume of 30 mL and mAb1 cells. FIG. 10a depicts VCD and viability from mAb1 cells of the experimental approach with constant osmolality and increasing raffinose concentration in Spin Tubes. […] The lowest VCD was obtained at 100 mM raffinose (10.2±0.2*10^6 cells/mL), as illustrated in FIG. 10b.

[2] = test system: mAb1 cells (CHO-S cells expressing IgG1 mAb1); assay: Fed-batch culture in 96 deep-well plates, constant osmolality (315 mOsm/kg), increasing sugar concentration (experimental approach 1); format: cell-based, Chinese hamster; conditions: for increase of High Mannose (HM) species of mAb1 with respect to control: absolute change; for cell growth with increasing sugar concentration: 0-127.5 mM; for increase of HM for mAb1 (overall conclusion): constant osmolality, concentration not given
Procedure: as §1
(§5) Deepwell plates: Cells expressing mAb2 were inoculated at 0.2×10^6 cells per millilitre (mL), whereas cells expressing mAb1 were inoculated at 0.3×10^6 cells per mL.
as §2, §3, §4
(§6) Viable cell density and viability were measured with the Guava easyCyte® flow cytometer.
(§7) Antibody titers were measured with the fortéBIO Octet®.
(§8) Glycosylation profiles were established by capillary gel electrophoresis with laser-induced fluorescence (CGE-LIF). Groups of glycans were defined as thereafter in Table 2.
(§9) Experiment was performed to check whether high osmolality or high sugar concentration have an influence on the viability of the cells, VCD as well as on amount of High Mannose (HM) species. A chemically defined proprietary medium with lower osmolality (PM-200) compared to standard media, was used to vary sugar concentrations from 1-150 mM (green) while maintaining the osmolality of standard media (315 mOsm/kg) via supplementation with NaCl (blue), as illustrated in FIG. 1. Standard media and PM-200 differ in the composition, so the missing amounts of raw material were added (except NaCl). As sugars raffinose (a trisaccharide) and sucrose (a disaccharide) were chosen. Stock solutions (raffinose 22 mM, raffinose 220 mM, sucrose 50 mM, sucrose 1 M and NaCl 1 M) were prepared and added to the media before inoculation.
(§10) Stock solutions were prepared with media to prevent dilution. The given concentrations equal the concentrations in media before incoculation. CHO-S cells (=mAb1 cells) expressing mAb1 were expanded for 49 days, CHO-K1 (=mAb2 cells) expressing mAb2 were expanded for 28 days.

[3] = test system: mAb2 cells (CHO-K1 cells expressing IgG1 mAb2); assay: as above; format: cell-based, Chinese hamster; conditions: for increase of High Mannose (HM) species of mAb2 with respect to control: absolute change; for increase of HM for mAb2 (overall conclusion): constant osmolality, concentration not given
Procedure: as §1, §5, §2, §3, §4, §6, §7, §8, §9, §10

[4] = test system: mAb2 cells (CHO-K1 cells expressing IgG1 mAb2); assay: Fed-batch culture in deep-well plates, 0 or 30 mM raffinose with increasing osmolality (experimental approach 2); format: cell-based, Chinese hamster
Procedure: as §1, §5, §2, §3, §4, §6, §7, §8, §10
The second experimental approach was performed with increasing osmolality and constant sugar concentrations (see table 3 and methods in example 1).

recombinant CHO cells = conditions: cited from earlier work
[5] = 100 mM raffinose, Spin Tubes, absolute change
[6] = 1 mM sugar in medium, 315 mOsm/kg, 14-day culture
[7] = 5 mM sugar, 315 mOsm/kg, working day 14
[8] = 100 mM sugar, 315 mOsm/kg, working day 14
[9] = 425 mOsm/kg with 30 mM raffinose
[10] = 80 mM sugar, 315 mOsm/kg, working day 14
[11] = 127.5 mM sugar, 315 mOsm/kg, working day 14
[12] = 50 mM sugar, 315 mOsm/kg, working day 14

Structure (SMILES): OC[C@H]1O[C@H](OC[C@H]2O[C@H](O[C@]3(CO)O[C@H](CO)[C@@H](O)[C@@H]3O)[C@H](O)[C@@H](O)[C@@H]2O)[C@H](O)[C@@H](O)[C@H]1O [raffinose, O-α-D-Galactopyranosyl-(1→6)-α-D-g lucopyranosyl-(1→2)-β-D-fructofuranoside]
- maximum cell concentration (VCD) ([1]; 10 mM raffinose, Spin Tubes, n=2): 17.8±0.2 *10^6 cells/mL
- concentration of antibodies (harvest titer) ([1]; 10 mM raffinose, working day 14, Spin Tubes): about 2200 mg/L
- increase of productivity versus control ([1]; 100 mM raffinose, Spin Tubes): about 64%
- productivity per cell per day (PCD), peak ([1]; 100 mM raffinose, Spin Tubes): about 23 pg/cell/day
- viability at the end of cultivation ([1]; 100 mM raffinose, Spin Tubes): about 86%
- decrease of fucosylated glycans of mAb1 with respect to control [1, 5]: 15.9%
- increase of Man5 of mAb1 with respect to control [1, 5]: 7.7%
- maximum VCD (lowest of the conditions) ([1]; 100 mM raffinose, Spin Tubes, n=2): 10.2±0.2 *10^6 cells/mL
- acid isoforms and amount of aggregates with increasing raffinose concentration ([1]; Spin Tubes, data not shown): increased
- amount of alkaline isoforms with increasing raffinose concentration ([1]; Spin Tubes, data not shown): decreased
- absolute change of unknown, galactosylated and sialylated glycoforms ([1]; raffinose supplementation, Spin Tubes): not affected
- absolute harvest titer compared to control ([1]; supplemented raffinose (10-100 mM), Spin Tubes): higher than the control
- maximum cell concentration (VCD) [2, 6]: 16.2±1.0 *10^6 cells/mL
- cell viability [2, 7]: about 57%
- absolute harvest titer ([2]; 10 mM sugar, 315 mOsm/kg, working day 14): about 2650 mg/L
- increase of High Mannose (HM) species of mAb1 with respect to control ([2]; 50 mM sugar, 315 mOsm/kg): 6.8%
- maximum cell concentration (VCD) ([2]; 100 mM sugar in medium, 315 mOsm/kg): 2.3±2.1 *10^6 cells/mL
- specific productivity [2, 8]: about 45 pg/cell/day
- product titer compared to control ([2]; 1-65 mM sugar, 315 mOsm/kg, working day 14): higher product titer than control
- absolute harvest titer ([2]; 80-127.5 mM sugar, 315 mOsm/kg, working day 14): 825 to 975 mg/L
- change of fucosylated species of mAb1 with increasing sugar concentration ([2]; 315 mOsm/kg): decrease
- change of galactosylated, HM and non-fucosylated species of mAb1 with increasing sugar concentration ([2]; 315 mOsm/kg): increase
- cell growth with increasing sugar concentration ([2]; 315 mOsm/kg): inhibited
- specific productivity with increasing sugar concentration ([2]; 315 mOsm/kg, working day 14): increased
- increase of HM for mAb1 (overall conclusion) [2]: 7%
- maximum cell concentration (VCD) ([3]; 5 mM sugar, 315 mOsm/kg): 11.85±1.1 *10^6 cells/mL
- maximum VCD (lowest of the conditions) ([3]; 80 mM sugar, 315 mOsm/kg): 6.4±1.7 *10^6 cells/mL
- specific productivity ([3]; 100 mM sugar, 315 mOsm/kg): about 30 pg/cell/day
- increase of High Mannose (HM) species of mAb2 with respect to control ([3]; 100 mM sugar, 315 mOsm/kg): 6.3%
- harvest titer [3, 8]: about 2350 mg/L
- cell growth with increasing sugar concentration ([3]; 315 mOsm/kg): reduced
- change of fucosylated species of mAb2 with higher sugar concentration ([3]; 315 mOsm/kg): decrease
- change of galactosylated, HM and non-fucosylated species of mAb2 with higher sugar concentration ([3]; 315 mOsm/kg): increase
- increase of HM for mAb2 (overall conclusion) [3]: 6%
- viability at the end of the experiment ([4]; 375 mOsm/kg and 30 mM raffinose): about 59%
- absolute harvest titer ([4]; 425 mOsm/kg and 30 mM raffinose, working day 14): about 1150 mg/L
- increase of HM species of mAb2 with respect to control (315 mOsm/kg) [4, 9]: 8.5%
- maximum VCD (lowest of the conditions) [4, 9]: 8.2±2.3 *10^6 cells/mL

Structure (SMILES): CCCC(=O)[O-].[Na+] [sodium butyrate]
- cell viability at the end of the production run (recombinant CHO cells; batch culture, after 8 days of culture): less than 45%
- cell viability (recombinant CHO cells; perfusion batch culture, within 6 days of treatment): 15%

Structure (SMILES): OC[C@H]1O[C@@](CO)(O[C@H]2O[C@H](CO)[C@@H](O)[C@H](O)[C@H]2O)[C@@H](O)[C@@H]1O [sucrose, α-D-glucopyranosyl-(1→2)-β-D-fructofuranoside]
- maximum cell concentration (VCD) [2, 6]: 18.2±1.7 *10^6 cells/mL
- absolute harvest titer ([2]; 1 mM sugar, 315 mOsm/kg, working day 14): about 2800 mg/L
- absolute harvest titer [2, 10]: ~2550 mg/L
- specific productivity [2, 10]: about 26 pg/cell/day
- increase of High Mannose (HM) species of mAb1 with respect to control ([2]; 100 mM sugar, 315 mOsm/kg): 14.2%
- maximum cell concentration (VCD) ([2]; 127 mM (maximum tested) sugar, 315 mOsm/kg): 9.6±3.2 *10^6 cells/mL
- increase of High Mannose (HM) species of mAb1 with respect to control ([2]; 127.5 mM sugar, 315 mOsm/kg): 14.3%
- cell viability [2, 11]: ~64%
- change of fucosylated species of mAb1 with increasing sugar concentration ([2]; 315 mOsm/kg): decrease
- change of galactosylated, HM and non-fucosylated species of mAb1 with increasing sugar concentration ([2]; 315 mOsm/kg): increase
- cell growth with increasing sugar concentration ([2]; 315 mOsm/kg): inhibited
- specific productivity with increasing sugar concentration ([2]; 315 mOsm/kg, working day 14): no change
- increase of HM for mAb1 (overall conclusion) [2]: 14%
- absolute harvest titer [3, 7]: about 700 mg/L
- maximum cell concentration (VCD) ([3]; 10 mM sugar, 315 mOsm/kg): 11.1±1.6 *10^6 cells/mL
- absolute harvest titer [3, 12]: about 2100 mg/L
- specific productivity [3, 12]: about 21 pg/cell/day
- increase of High Mannose (HM) species of mAb2 with respect to control ([3]; 100 mM sugar, 315 mOsm/kg): 6.0%
- maximum VCD (lowest of the conditions) ([3]; 127.5 mM sugar, 315 mOsm/kg): 6.9±1.1 *10^6 cells/mL
- increase of High Mannose (HM) species of mAb2 with respect to control ([3]; 127.5 mM sugar, 315 mOsm/kg): 9.1%
- specific productivity [3, 11]: about 24 pg/cell/day
- change of fucosylated species of mAb2 with higher sugar concentration ([3]; 315 mOsm/kg): decrease
- change of galactosylated, HM and non-fucosylated species of mAb2 with higher sugar concentration ([3]; 315 mOsm/kg): increase
- increase of HM for mAb2 (overall conclusion) [3]: 9%
- production of antibodies with respect to control ([3]; sugar supplementation, 315 mOsm/kg, working day 14): decrease
